{"source": "patent US20240358668A1", "about": "“METHODS AND CO[…] AM[…] CARD[…] USING (R)-2-AMINO-3-PH[…]” (AXSOME THERAPEUTICS, INC., priority 2021, published 2024)", "key": {"[1]": {"test": "1-year open-label extension (OLE) study: weight change", "type": "in vivo, human", "procedure": "(§1) A 1-year open-label extension (OLE) study was performed with 374 participants to examined whether clinically significant weight loss (≥5%) in this population had favorable effects on biomarkers of cardiovascular risk compared to no such weight loss. The study measured changes in weight and BP (parent study baseline to OLE week 40) and clinical laboratory assessments (OLE baseline to week 40) in participants with narcolepsy (n=124) or OSA (n=250) who received solriamfetol at doses of 75, 150, or 300 mg/d.\nIncreased prevalence of obesity has been reported in patients with narcolepsy and obstructive sleep apnea (OSA). […] We examined whether clinically significant weight loss (≥5%) in this population had favorable effects on biomarkers of cardiovascular risk compared to no such weight loss.\n(§2) We evaluated changes in weight and BP (parent study baseline to OLE week 40) and clinical laboratory assessments (OLE baseline to week 40) in participants with narcolepsy (n=124) or OSA (n=250) from the OLE study."}, "[2]": {"tested_on": "participants with narcolepsy or OSA", "test": "1-year OLE study: blood pressure, parent study baseline to OLE week 40", "type": "in vivo, human", "settings": "Weight loss <5% at Week 40", "procedure": "as §1, §2"}}, "data": [{"smiles": "NC(=O)OC[C@H](N)Cc1ccccc1", "note": "[Solriamfetol, (R)-2-amino-3-phenylpropyl carbamate]", "values": [{"measurement": "participants with ≥5% weight loss", "setting": "[1]; 1-year OLE, narcolepsy or OSA, 75 mg/d", "result": 4.5, "unit": "%"}, {"measurement": "participants with ≥5% weight loss", "setting": "[1]; 1-year OLE, narcolepsy or OSA, 150 mg/d", "result": 17.3, "unit": "%"}, {"measurement": "participants with ≥5% weight loss", "setting": "[1]; 1-year OLE, narcolepsy or OSA, 300 mg/d", "result": 32.4, "unit": "%"}, {"measurement": "participants with ≥5% weight gain", "setting": "[1]; of 374 participants, all doses, 34 participants, week 40", "result": "9.1 % of total population"}, {"measurement": "participants with ≥5% weight loss", "setting": "[1]; of 374 participants, all doses, 96 participants, week 40", "result": 25.7, "unit": "%"}, {"measurement": "DBP Change - Wk 40, Mean (SD)", "setting": "[2]; 75 mg/d", "result": "0.2 (9.5) mmHg"}, {"measurement": "DBP Change - Wk 40, Median", "setting": "[2]; 75 mg/d", "result": 0.0, "unit": "mmHg"}, {"measurement": "DBP maximum changes from baseline to week 40: Decrease ≥10%", "setting": "[2]; 75 mg/d", "result": "3 (14.3) n (%)"}, {"measurement": "DBP maximum changes from baseline to week 40: Decrease ≥20%", "setting": "[2]; 75 mg/d", "result": "0 n (%)"}, {"measurement": "DBP maximum changes from baseline to week 40: Decrease ≥30%", "setting": "[2]; 75 mg/d", "result": "0 n (%)"}, {"measurement": "DBP maximum changes from baseline to week 40: Increase ≥10%", "setting": "[2]; 75 mg/d", "result": "4 (19.0) n (%)"}, {"measurement": "DBP maximum changes from baseline to week 40: Increase ≥20%", "setting": "[2]; 75 mg/d", "result": "0 n (%)"}, {"measurement": "DBP maximum changes from baseline to week 40: Increase ≥30%", "setting": "[2]; 75 mg/d", "result": "0 n (%)"}, {"measurement": "SBP Change - Wk 40, Mean (SD)", "setting": "[2]; 75 mg/d", "result": "−3.0 (12.3) mmHg"}, {"measurement": "SBP Change - Wk 40, Median", "setting": "[2]; 75 mg/d", "result": 0.50, "unit": "mmHg"}, {"measurement": "SBP maximum changes from baseline to week 40: Decrease ≥10%", "setting": "[2]; 75 mg/d", "result": "6 (28.6) n (%)"}, {"measurement": "SBP maximum changes from baseline to week 40: Decrease ≥20%", "setting": "[2]; 75 mg/d", "result": "0 n (%)"}, {"measurement": "SBP maximum changes from baseline to week 40: Decrease ≥30%", "setting": "[2]; 75 mg/d", "result": "0 n (%)"}, {"measurement": "SBP maximum changes from baseline to week 40: Increase ≥10%", "setting": "[2]; 75 mg/d", "result": "5 (23.8) n (%)"}, {"measurement": "SBP maximum changes from baseline to week 40: Increase ≥20%", "setting": "[2]; 75 mg/d", "result": "0 n (%)"}, {"measurement": "SBP maximum changes from baseline to week 40: Increase ≥30%", "setting": "[2]; 75 mg/d", "result": "0 n (%)"}, {"measurement": "DBP Change - Wk 40, Mean (SD)", "setting": "[2]; 150 mg/d", "result": "2.3 (7.9) mmHg"}, {"measurement": "DBP Change - Wk 40, Median", "setting": "[2]; 150 mg/d", "result": 2.3, "unit": "mmHg"}, {"measurement": "DBP maximum changes from baseline to week 40: Decrease ≥10%", "setting": "[2]; 150 mg/d", "result": "4 (3.8) n (%)"}, {"measurement": "DBP maximum changes from baseline to week 40: Decrease ≥20%", "setting": "[2]; 150 mg/d", "result": "1 (1.0) n (%)"}, {"measurement": "DBP maximum changes from baseline to week 40: Decrease ≥30%", "setting": "[2]; 150 mg/d", "result": "0 n (%)"}, {"measurement": "DBP maximum changes from baseline to week 40: Increase ≥10%", "setting": "[2]; 150 mg/d", "result": "16 (15.2) n (%)"}, {"measurement": "DBP maximum changes from baseline to week 40: Increase ≥20%", "setting": "[2]; 150 mg/d", "result": "3 (2.9) n (%)"}, {"measurement": "DBP maximum changes from baseline to week 40: Increase ≥30%", "setting": "[2]; 150 mg/d", "result": "0 n (%)"}, {"measurement": "SBP Change - Wk 40, Mean (SD)", "setting": "[2]; 150 mg/d", "result": "2.30 (12.1) mmHg"}, {"measurement": "SBP Change - Wk 40, Median", "setting": "[2]; 150 mg/d", "result": 2.00, "unit": "mmHg"}, {"measurement": "SBP maximum changes from baseline to week 40: Decrease ≥10%", "setting": "[2]; 150 mg/d", "result": "15 (14.3) n (%)"}, {"measurement": "SBP maximum changes from baseline to week 40: Decrease ≥20%", "setting": "[2]; 150 mg/d", "result": "4 (3.8) n (%)"}, {"measurement": "SBP maximum changes from baseline to week 40: Decrease ≥30%", "setting": "[2]; 150 mg/d", "result": "0 n (%)"}, {"measurement": "SBP maximum changes from baseline to week 40: Increase ≥10%", "setting": "[2]; 150 mg/d", "result": "26 (24.8) n (%)"}, {"measurement": "SBP maximum changes from baseline to week 40: Increase ≥20%", "setting": "[2]; 150 mg/d", "result": "7 (6.7) n (%)"}, {"measurement": "SBP maximum changes from baseline to week 40: Increase ≥30%", "setting": "[2]; 150 mg/d", "result": "2 (1.9) n (%)"}, {"measurement": "DBP Change - Wk 40, Mean (SD)", "setting": "[2]; 300 mg/d", "result": "0.6 (9.1) mmHg"}, {"measurement": "DBP Change - Wk 40, Median", "setting": "[2]; 300 mg/d", "result": 1.5, "unit": "mmHg"}, {"measurement": "DBP maximum changes from baseline to week 40: Decrease ≥10%", "setting": "[2]; 300 mg/d", "result": "20 (13.2) n (%)"}, {"measurement": "DBP maximum changes from baseline to week 40: Decrease ≥20%", "setting": "[2]; 300 mg/d", "result": "5 (3.3) n (%)"}, {"measurement": "DBP maximum changes from baseline to week 40: Decrease ≥30%", "setting": "[2]; 300 mg/d", "result": "0 n (%)"}, {"measurement": "DBP maximum changes from baseline to week 40: Increase ≥10%", "setting": "[2]; 300 mg/d", "result": "21 (13.8) n (%)"}, {"measurement": "DBP maximum changes from baseline to week 40: Increase ≥20%", "setting": "[2]; 300 mg/d", "result": "2 (1.3) n (%)"}, {"measurement": "DBP maximum changes from baseline to week 40: Increase ≥30%", "setting": "[2]; 300 mg/d", "result": "0 n (%)"}, {"measurement": "SBP Change - Wk 40, Mean (SD)", "setting": "[2]; 300 mg/d", "result": "−0.37 (12.7) mmHg"}, {"measurement": "SBP Change - Wk 40, Median", "setting": "[2]; 300 mg/d", "result": 0.17, "unit": "mmHg"}, {"measurement": "SBP maximum changes from baseline to week 40: Decrease ≥10%", "setting": "[2]; 300 mg/d", "result": "36 (23.7) n (%)"}, {"measurement": "SBP maximum changes from baseline to week 40: Decrease ≥20%", "setting": "[2]; 300 mg/d", "result": "10 (6.6) n (%)"}, {"measurement": "SBP maximum changes from baseline to week 40: Decrease ≥30%", "setting": "[2]; 300 mg/d", "result": "2 (1.3) n (%)"}, {"measurement": "SBP maximum changes from baseline to week 40: Increase ≥10%", "setting": "[2]; 300 mg/d", "result": "33 (21.7) n (%)"}, {"measurement": "SBP maximum changes from baseline to week 40: Increase ≥20%", "setting": "[2]; 300 mg/d", "result": "8 (5.3) n (%)"}, {"measurement": "SBP maximum changes from baseline to week 40: Increase ≥30%", "setting": "[2]; 300 mg/d", "result": "0 n (%)"}, {"measurement": "DBP Change - Wk 40, Median", "setting": "[2]; all doses", "result": 1.4, "unit": "mmHg"}, {"measurement": "DBP maximum changes from baseline to week 40: Decrease ≥10%", "setting": "[2]; all doses", "result": "27 (9.7) n (%)"}, {"measurement": "DBP maximum changes from baseline to week 40: Decrease ≥20%", "setting": "[2]; all doses", "result": "6 (2.2) n (%)"}, {"measurement": "DBP maximum changes from baseline to week 40: Decrease ≥30%", "setting": "[2]; all doses", "result": "0 n (%)"}, {"measurement": "DBP maximum changes from baseline to week 40: Increase ≥10%", "setting": "[2]; all doses", "result": "41 (14.7) n (%)"}, {"measurement": "DBP maximum changes from baseline to week 40: Increase ≥20%", "setting": "[2]; all doses", "result": "5 (1.8) n (%)"}, {"measurement": "DBP maximum changes from baseline to week 40: Increase ≥30%", "setting": "[2]; all doses", "result": "0 n (%)"}, {"measurement": "SBP Change - Wk 40, Median", "setting": "[2]; all doses", "result": 0.50, "unit": "mmHg"}, {"measurement": "SBP maximum changes from baseline to week 40: Decrease ≥10%", "setting": "[2]; all doses", "result": "57 (20.5) n (%)"}, {"measurement": "SBP maximum changes from baseline to week 40: Decrease ≥20%", "setting": "[2]; all doses", "result": "14 (5.0) n (%)"}, {"measurement": "SBP maximum changes from baseline to week 40: Decrease ≥30%", "setting": "[2]; all doses", "result": "2 (0.7) n (%)"}, {"measurement": "SBP maximum changes from baseline to week 40: Increase ≥10%", "setting": "[2]; all doses", "result": "64 (23.0) n (%)"}, {"measurement": "SBP maximum changes from baseline to week 40: Increase ≥20%", "setting": "[2]; all doses", "result": "15 (5.4) n (%)"}, {"measurement": "SBP maximum changes from baseline to week 40: Increase ≥30%", "setting": "[2]; all doses", "result": "2 (0.7) n (%)"}, {"measurement": "DBP Change - Wk 40, Mean (SD)", "setting": "[2]; all doses, listed as Solri", "result": "1.2 (8.7) mmHg"}]}]}
